Test results as given in US6599901B1, “Pyridone substituted benzothiazole derivatives” (Hoffman-La Roche Inc., priority 2001, dated 2003).

biological target: T1, human adenosine A2A receptor (Homo sapiens, UniProt P29274); test: [3H]-SCH-58261 binding assay, human adenosine A2A receptor (CHO cell membranes, SPA); settings: recombinant human A2A receptor in CHO membranes; [3H]-SCH-58261 1 nM; Ki by Cheng-Prussoff; read-out: hA2 (pKi) (converted)
T1 construct: expressed in transfected cells; host or cells: CHO cells, semliki forest virus expression system
Description: (§1) The human adenosine A2A receptor was recombinantly expressed in chinese hamster ovary (CHO) cells using the semliki forest virus expression system. Cells were harvested, washed twice by centrifugation, homogenised and again washed by centrifugation. The final washed membrane pellet was suspended in a Tris (50 mM) buffer containing 120 mM NaCl, 5 mM KCl, 2 mM CaCl2 and 10 mM MgCl2 (pH 7.4) (buffer A). The [^3H]-SCH-58261 (Dionisotti et al., 1997, Br J Pharmacol 121, 353; 1 nM) binding assay was carried out in 96-well plates in the presence of 2.5 μM of membrane protein, 0.5 mg of Ysi-poly-1-lysine SPA beads and 0.1 U adenosine deaminase in a final volume of 200 μl of buffer A. Non-specific binding was defined using xanthine amine congener (XAC; 2 μM). Compounds were tested at 10 concentrations from 10 μM-0.3 nM. All assays were conducted in duplicate and repeated at least two times. Assay plates were incubated for 1 hour at room temperature before centrifugation and then bound ligand determined using a Packard Topcount scintillation counter. IC50 values were calculated using a non-linear curve fitting program and Ki values calculated using the Cheng-Prussoff equation.

T1 sequence (P29274 whole entry): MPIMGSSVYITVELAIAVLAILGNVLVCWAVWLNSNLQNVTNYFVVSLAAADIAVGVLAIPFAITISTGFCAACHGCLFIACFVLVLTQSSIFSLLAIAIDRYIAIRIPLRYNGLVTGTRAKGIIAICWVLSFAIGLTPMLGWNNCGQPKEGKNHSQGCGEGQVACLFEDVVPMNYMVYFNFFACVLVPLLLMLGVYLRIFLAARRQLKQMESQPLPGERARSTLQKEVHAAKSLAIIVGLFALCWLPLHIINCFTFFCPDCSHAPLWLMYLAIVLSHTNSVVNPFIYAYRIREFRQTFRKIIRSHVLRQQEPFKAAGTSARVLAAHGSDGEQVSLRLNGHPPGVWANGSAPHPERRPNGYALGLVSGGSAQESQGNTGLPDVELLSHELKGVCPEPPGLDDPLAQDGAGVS

Row | Structure (SMILES) | Ki [nM]
1 | CCC(=O)Cn1ccc(C(=O)Nc2nc3c(OC)ccc(N4CCOCC4)c3s2)cc1=O [Example 3, 2-oxo-1-(2-oxo-Butyl)-1,2-dihydro-pyridine-4-carboxylic Acid (4-Methoxy-7-morpholin-4-yl-benzothiazol-2-yl)-amide] | 5.75
2 | COc1ccc(N2CCOCC2)c2sc(NC(=O)c3ccn(Cc4ccccc4)c(=O)c3)nc12 [Example 1, 1-Benzyl-2-oxo-1,2-dihydro-pyridine-4-carboxylic Acid (4-Methoxy-7-morpholin-4-yl-benzothiazol-2-yl)-amide] | 2.14
3 | COc1ccc(N2CCOCC2)c2sc(NC(=O)c3ccn(CC(=O)N(C)C)c(=O)c3)nc12 [Example 6, 1-Dimethylcarbamoylmethyl-2-oxo-1,2-dihydro-pyridine-4-carboxylic Acid (4-Methoxy-7-morpholin-4-yl-benzothiazol-2-yl)-amide] | 50.1
4 | COc1ccc(N2CCOCC2)c2sc(NC(=O)c3ccn(CC(=O)N4CCOCC4)c(=O)c3)nc12 [Example 5, 1-(2-Morpholin-4-yl-2-oxo-ethyl)-2-oxo-1,2-dihydro-pyridine-4-carboxylic Acid (4-Methoxy-7-morpholin-4-yl-benzothiazol-2-yl)-amide] | 58.9
5 | COc1ccc(N2CCOCC2)c2sc(NC(=O)c3ccn(Cc4ccccn4)c(=O)c3)nc12 [Example 4, 2-oxo-1-Pyridin-2-ylmethyl-1,2-dihydro-pyridine-4-carboxylic Acid (4-Methoxy-7-morpholin-4-yl-benzothiazol-2-yl)-amide] | 7.94
6 | CCOC(=O)Cn1ccc(C(=O)Nc2nc3c(OC)ccc(N4CCOCC4)c3s2)cc1=O [Example 2, [4-(4-Methoxy-7-morpholin-4-yl-benzothiazol-2-ylcarbamoyl)-2-oxo-2H-pyridin-1-yl]-acetic Acid Ethyl Ester] | 6.46

biological target: T2, human adenosine A1 receptor (Homo sapiens, UniProt P30542); test: [3H]-DPCPX binding assay, human adenosine A1 receptor (CHO cell membranes, SPA); settings: recombinant human A1 receptor in CHO membranes; [3H]-DPCPX 0.6 nM; Ki by Cheng-Prussoff; read-out: hA1 (pKi) (converted)
T2 construct: expressed in transfected cells; host or cells: CHO cells, semliki forest virus expression system
T2 sequence (P30542 1-326): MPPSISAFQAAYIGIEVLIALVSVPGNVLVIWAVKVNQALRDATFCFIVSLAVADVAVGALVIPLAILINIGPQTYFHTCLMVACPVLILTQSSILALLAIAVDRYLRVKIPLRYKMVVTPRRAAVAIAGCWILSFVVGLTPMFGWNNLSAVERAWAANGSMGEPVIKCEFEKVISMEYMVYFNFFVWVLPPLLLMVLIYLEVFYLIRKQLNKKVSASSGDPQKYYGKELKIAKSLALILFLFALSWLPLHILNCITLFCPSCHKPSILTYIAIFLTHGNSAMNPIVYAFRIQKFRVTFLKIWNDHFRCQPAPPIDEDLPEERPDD
Description: as §1, with “adenosine A1” for “adenosine A2A”, “The [^3H]-DPCPX (([propyl-^3H]8-cyclopentyl-1,3-dipropyxanthine); 0.6” for “The [^3H]-SCH-58261 (Dionisotti et al., 1997, Br J Pharmacol 121, 353; 1”, “2.5 μg” for “2.5 μM”

Row | Structure (SMILES) | Ki [nM]
7 | COc1ccc(N2CCOCC2)c2sc(NC(=O)c3ccn(Cc4ccccc4)c(=O)c3)nc12 [Example 1, 1-Benzyl-2-oxo-1,2-dihydro-pyridine-4-carboxylic Acid (4-Methoxy-7-morpholin-4-yl-benzothiazol-2-yl)-amide] | 1260
